Measured values taken from US20260108546A1 (ELI LILLY AND COMPANY, priority 2024, published 2026).

Target: T1, hGIP-R (Homo sapiens, UniProt P48546)
T1 construct: expressed in transfected cells; host or cells: HEK-293 clonal cell lines
T1 sequence (P48546 22-466): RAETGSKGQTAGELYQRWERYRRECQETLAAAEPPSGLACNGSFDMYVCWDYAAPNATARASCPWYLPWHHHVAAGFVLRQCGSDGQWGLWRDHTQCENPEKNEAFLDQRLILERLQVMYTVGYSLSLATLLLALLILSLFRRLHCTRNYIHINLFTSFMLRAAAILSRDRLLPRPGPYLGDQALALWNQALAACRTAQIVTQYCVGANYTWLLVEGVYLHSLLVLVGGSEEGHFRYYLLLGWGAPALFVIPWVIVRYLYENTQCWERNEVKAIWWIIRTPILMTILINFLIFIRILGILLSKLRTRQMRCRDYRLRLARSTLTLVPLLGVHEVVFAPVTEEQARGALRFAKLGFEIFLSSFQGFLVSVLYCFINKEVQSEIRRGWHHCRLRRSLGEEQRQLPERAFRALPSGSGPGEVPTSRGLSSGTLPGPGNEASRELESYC
Test: Functional hGIP-R Assay (cAMP formation, HTRF)
Format: cell-based
Details: for Emax: cAMP efficacy, percent of maximal response to GIP(1-42)OH, 37° C., 0.1% bovine casein, arithmetic mean ± SEM; for EC50: cAMP potency, HEK-293 cells expressing hGIP-R, incubated at 37° C. in the presence of 0.1% bovine casein, geometric mean, read-out: Human GIP-R EC50, nM (SEM, n)
Description: Functional activity was determined using CAMP formation in HEK-293 clonal cell lines expressing hGIP-R. hGIP-R receptor expressing cells were treated with compound (20 point concentration-response curve in DMSO, 2-fold Labcyte Echo direct dilution, 384 well plate Corning Cat #3570) in DMEM (Gibco Cat #31053) supplemented with 1× GlutaMAX™ (Gibco Cat #35050), 0.1% bovine casein (Sigma C4765-10ML), 250 μM IBMX (3-Isobutyl-1-methylxanthine, Acros Cat #228420010) and 20 mM HEPES (Gibco Cat #15630) in a 20 μL assay volume (final DMSO concentration was 1%). After a 30 min incubation at 37° C., the resulting increase in intracellular cAMP was quantitatively determined using the Revvity CAMP Dynamic 2 HTRF Assay Kit (62AM4PEJ). Briefly, cAMP levels within the cell were detected by adding the cAMP-d2 conjugate in cell lysis buffer (10 μL) followed by the antibody anti-cAMP-Eu^3+-Cryptate, also in cell lysis buffer (10 μL). The resulting competitive assay was incubated for at least 60 min at RT, then detected using a BMG Labtech PHERAstar FSX instrument with excitation at 320 nm and emission at 665 nm and 620 nm. PHERAstar units (emission at 665 nm/620 nm*10,000) are inversely proportional to the amount of cAMP present and were converted to nM cAMP per well using a CAMP standard curve. The amount of cAMP generated (nM) in each well was converted to a percent of the maximal response observed with human GIP (1-42) OH. A relative EC50 value and percent top (Emax) were derived by non-linear regression analysis using the percent maximal response vs. the concentration of compound added, fitted to a four-parameter logistic equation.

Cn1cc2cc(-c3ccc(C4CC4C(=O)N[C@H](Cc4cnc5ncccn45)C(=O)NC(C)(C)Cn4cc(C(F)(F)F)cn4)c(F)c3)cnc2n1 (single isomer, unassigned; isomer 2) [Example 71]
Emax: 88.4 ± 10.3%
EC50: 74.8 nM

Cn1cc2cc(-c3ccc([C@H]4C[C@@]45CCN([C@H](Cc4cnn(C(F)F)c4)C(=O)NC(C)(C)Cn4nc(C(F)(F)F)cc4-c4cnc(N6CCC(=O)CC6)nc4)C5=O)cc3)cnc2n1 [Example 142, (R)-3-(1-(Difluoro-methyl)-1H-pyrazol-4-yl)-N-(2-methyl-1-(5-(2-(4-oxopiperidin-1-yl)pyrimidin-5-yl)-3-(trifluoromethyl)-1H-pyrazol-1-yl)propan-2-yl)-2-((1R,3R)-1-(4-(2-methyl-2H-pyrazolo[3,4-b]pyridin-5-yl)phenyl)-4-oxo-5-azaspiro[2.4]heptan-5-yl)propanamide]
Emax: 49.9 ± 1.38%
EC50: 102 nM

CN(C(=O)[C@H]1C[C@@H]1c1ccc(-c2cnc3nn(C)cc3c2)cc1F)[C@H](Cc1cnn(C)c1)C(=O)NC(C)(C)Cn1nc(C(F)(F)F)cc1-c1ccc(=O)n(C)c1 [Example 61, (1S,2S)-2-(2-Fluoro-4-(2-methyl-2H-pyrazolo [3,4-b]pyridin-5-yl)phenyl)-N-methyl-N-((R)-1-((2-methyl-1-(5-(1-methyl-6-oxo-1,6-dihydropyridin-3-yl)-3-(trifluoromethyl)-1H-pyrazol-1-yl)propan-2-yl)amino)-3-(1-methyl-1H-pyrazol-4-yl)-1-oxopropan-2-yl) cyclopropane-1-carboxamide]
Emax: 88.5 ± 2.66%
EC50: 56.8 nM

Cn1cc2cc(-c3ccc([C@H]4C[C@@H]4C(=O)N[C@H](Cc4cnn(C(F)F)c4)C(=O)NC(C)(C)Cn4nc(C(F)(F)F)cc4-c4cn[nH]n4)cc3)cnc2n1 [Example 43, (1S,2S)-N-((R)-1-((1-(5-(2H-1,2,3-Triazol-4-yl)-3-(trifluoromethyl)-1H-pyrazol-1-yl)-2-methylpropan-2-yl)amino)-3-(1-(difluoromethyl)-1H-pyrazol-4-yl)-1-oxopropan-2-yl)-2-(4-(2-methyl-2H-pyrazolo[3,4-b]pyridin-5-yl)phenyl)cyclopropane-1-carboxamide]
Emax: 116 ± 4.26%
EC50: 61.1 nM

CN(C(=O)[C@H]1C[C@@H]1c1ccc(NC(=O)C2CCC(F)(F)CC2)cc1)[C@H](Cc1cnn(C)c1)C(=O)NC(C)(C)Cn1nc(C(F)(F)F)cc1-c1ccc(=O)n(C)c1 [Example 35, 4,4-Difluoro-N-(4-((1S,2S)-2-(methyl((R)-1-((2-methyl-1-(5-(1-methyl-6-oxo-1,6-dihydropyridin-3-yl)-3-(trifluoromethyl)-1H-pyrazol-1-yl)propan-2-yl)amino)-3-(1-methyl-1H-pyrazol-4-yl)-1-oxopropan-2-yl)carbamoyl)cyclopropyl)phenyl)cyclohexane-1-carboxamide]
Emax: 75 ± 4.1%
EC50: 135 nM

[2H]C([2H])([2H])N(C(=O)[C@H]1C[C@@H]1c1cnc(-c2cnc3nn(C)cc3c2)nc1C(F)(F)F)[C@H](Cc1cnn(C(F)F)c1)C(=O)NC(C)(C)Cn1nc(C(F)(F)F)cc1-c1cc(F)c(=O)n(C)c1 [Example 139, (1S,2S)-N-((R)-3-(1-(Difluoromethyl)-1H-pyrazol-4-yl)-1-((1-(5-(5-fluoro-1-methyl-6-oxo-1,6-dihydropyridin-3-yl)-3-(trifluoromethyl)-1H-pyrazol-1-yl)-2-methylpropan-2-yl)amino)-1-oxopropan-2-yl)-N-(methyl-d3)-2-(2-(2-methyl-2H-pyrazolo[3,4-b]pyridin-5-yl)-4-(trifluoromethyl)pyrimidin-5-yl)cyclopropane-1-carboxamide]
Emax: 99.7 ± 3.49%
EC50: 24.8 nM

CC(C)(Cn1nc(C(F)(F)F)cc1-c1cn[nH]n1)NC(=O)[C@@H](Cc1cnc2ncccn12)NC(=O)[C@H]1C[C@@H]1c1ccc(-c2cnc3nc(C(F)(F)F)cn3c2)cc1 [Example 68, (1S,2S)-N—((R)-1-((1-(5-(2H-1,2,3-Triazol-4-yl)-3-(trifluoromethyl)-1H-pyrazol-1-yl)-2-methylpropan-2-yl)amino)-3-(imidazo[1,2-a]pyrimidin-3-yl)-1-oxopropan-2-yl)-2-(4-(2-(trifluoromethyl)imidazo[1,2-a]pyrimidin-6-yl)phenyl)cyclopropane-1-carboxamide]
Emax: 86.9 ± 7.93%
EC50: 0.904 nM

Cn1cc(C[C@@H](NC(=O)[C@H]2C[C@@H]2c2ccc(-c3cnc4nn(C)cc4c3)cc2F)C(=O)NC(C)(C)Cn2nc(C(F)(F)F)cc2-c2cn[nH]n2)cn1 [Example 93, (1S,2S)-N—((R)-1-((1-(5-(2H-1,2,3-Triazol-4-yl)-3-(trifluoromethyl)-1H-pyrazol-1-yl)-2-methylpropan-2-yl)amino)-3-(1-methyl-1H-pyrazol-4-yl)-1-oxopropan-2-yl)-2-(2-fluoro-4-(2-methyl-2H-pyrazolo[3,4-b]pyridin-5-yl)phenyl)cyclopropane-1-carboxamide]
Emax: 115 ± 1.41%
EC50: 15.3 nM

[2H]C([2H])([2H])N(C(=O)C1CC1(C)c1ccc(-c2cnc3nn(C)cc3c2)cc1F)[C@H](Cc1cnn(C(F)F)c1)C(=O)NC(C)(C)Cn1nc(C(F)(F)F)cc1-c1cc(F)c(=O)n(C)c1 (single isomer, unassigned; isomer 1) [Example 140]
Emax: 84.8 ± 5.99%
EC50: 51.7 nM

[2H]C([2H])([2H])n1cc(C[C@H](C(=O)NC(C)(C)Cn2nc(C(F)(F)F)cc2-c2cnc(C(C)(C)O)nc2)N2CC[C@@]3(C[C@@H]3c3ccc(-c4cnc5nn(C)cc5c4)cc3Cl)C2=O)cn1 [Example 193, (R)-2-((1S,3R)-1-(2-chloro-4-(2-methyl-2H-pyrazolo[3,4-b]pyridin-5-yl)phenyl)-4-oxo-5-azaspiro[2.4]heptan-5-yl)-N-(1-(5-(2-(2-hydroxypropan-2-yl)pyrimidin-5-yl)-3-(trifluoromethyl)-1H-pyrazol-1-yl)-2-methylpropan-2-yl)-3-(1-(methyl-d3)-1H-pyrazol-4-yl)propanamide]
Emax: 85.5 ± 0.117%
EC50: 1.33 nM

CC(C)(Cc1ccc(F)cc1)NC(=O)[C@@H](Cc1cnc2ncccn12)NC(=O)[C@H]1C[C@@H]1c1ccc(NC(=O)C2CCC(F)(F)CC2)cc1 [Example 49, 4,4-Difluoro-N-(4-((1S,2S)-2-(((R)-1-((1-(4-fluorophenyl)-2-methylpropan-2-yl)amino)-3-(imidazo[1,2-a]pyrimidin-3-yl)-1-oxopropan-2-yl)carbamoyl)cyclopropyl)phenyl)cyclohexane-1-carboxamide]
Emax: 72.6 ± 3.47%
EC50: 12.6 nM

Cn1cc(C[C@@H](NC(=O)C2CC2(C)c2ccc(-c3cnc4nn(C)cc4c3)cc2)C(=O)NC(C)(C)Cn2cc(C(F)(F)F)cn2)cn1 (single isomer, unassigned; isomer 4) [Example 11]
Emax: 117 ± 5.22%
EC50: 55.2 nM

Cn1cc(C[C@@H](NC(=O)[C@H]2C[C@@H]2c2ccc(NC(=O)Nc3ccc(F)cc3)cc2)C(=O)NC(C)(C)Cc2ccc(F)cc2)cn1 [Example 97, (1S,2S)-N—((R)-1-((1-(4-Fluorophenyl)-2-methylpropan-2-yl)amino)-3-(1-methyl-1H-pyrazol-4-yl)-1-oxopropan-2-yl)-2-(4-(3-(4-fluorophenyl)ureido)phenyl)cyclopropane-1-carboxamide]
Emax: 96.6 ± 4.57%
EC50: 38.6 nM

Cn1cc2cc(-c3ccc(C4CC45CCN([C@H](Cc4cnn(C(F)F)c4)C(=O)NC(C)(C)Cn4nc(C(F)(F)F)cc4-c4cc(F)c(=O)n(C)c4)C5=O)c(C(F)F)c3)cnc2n1 (single isomer, unassigned; isomer 2) [Example 109]
Emax: 73.3 ± 2.59%
EC50: 0.701 nM

CC(C)(Cn1nc(C(F)(F)F)cc1-c1ccn(C2CC2)c(=O)c1)NC(=O)[C@@H](Cc1cnn(C(F)F)c1)N1CCC2(CC2c2ccc(-c3cnc4nc(C5CC5)cn4c3)nc2C2CC2)C1=O (single isomer, unassigned) [Example 166]
Emax: 116 ± 2.13%
EC50: 0.359 nM
